For one data set, the system named is secondary sludge. The conditions noted are these: famine conditions, during FNA treatment (FIG. 4). From the text:
NH4+ release rate under famine conditions is an indication of the hydrolysis of intracellular compounds release during the decay of dying cells. This hydrolysis is taken place by the activity of other living microorganisms present in the sludge.

A further data set has as its system AOB, NOB and OHOs. The conditions noted are these: FNA 0.22-2.47 mgN/L, pH 6, 24 h exposure.
In data set [1] the test system is denitrifying biomass. The conditions noted are these: methanol sludge, experimental reactor, 48 hours, FNA approx. 0.97 ppm, pH 6; 16 images. As for the experimental part: 2. A batch experiment was performed at pH 6 for initial biomass activity determination. At the beginning of the test, nitrate and methanol were added. Liquid phase samples were taken every 15 minutes for the analysis of nitrate and methanol. The consumption rates of methanol and nitrate were determined. All other batch tests described below were also conducted at pH 6. 3. Fresh sludge of 2 L was removed from the SBR at the end of a cycle, and equally divided into two batch reactors, namely the control and the experimental reactors. • a. The sludge in the control reactor was kept at pH 6 under mixed conditions for 48 hours; • b. The sludge in the experimental reactor was kept at pH 6 under mixed conditions for 48 hours. […] 4. 24 hours after the above conditions were started, sludge samples of 250 mL each were removed from both the control and the experimental reactors, and batch experiments as described in Step 2 were performed. […] Sludge samples were also removed at 48 hours from both reactors to quantify the live/dead cells using the Live/Dead BacLight Bacterial Viability assay. […] The methanol and nitrate consumptions rates at the end of Day 3, Day 4 and Day 7 were measured through measuring the nitrate and methanol concentrations over a period over one hour each time. […]

Data set [2] concerns denitrifying biomass. The conditions noted are these: for methanol consumption rate / nitrate consumption rate / methanol consumption rate, activity recovery / nitrate consumption rate, activity recovery: experimental reactor. The procedure: Methanol provided the carbon source and nitrate provided the electron acceptor. The following procedure was followed:
1. Sludge removed from the denitrifying SBR (sequencing batch reactor). The biomass was enriched for 5 months in an 8 L reactor with methanol as the carbon source and nitrate as the electron acceptor.
2. A batch experiment was performed at pH 6 for initial biomass activity determination. At the beginning of the test, nitrate and methanol were added. Liquid phase samples were taken every 15 minutes for the analysis of nitrate and methanol. The consumption rates of methanol and nitrate were determined. All other batch tests described below were also conducted at pH 6. 3. Fresh sludge of 2 L was removed from the SBR at the end of a cycle, and equally divided into two batch reactors, namely the control and the experimental reactors. • a. The sludge in the control reactor was kept at pH 6 under mixed conditions for 48 hours; • b. The sludge in the experimental reactor was kept at pH 6 under mixed conditions for 48 hours. […] 4. 24 hours after the above conditions were started, sludge samples of 250 mL each were removed from both the control and the experimental reactors, and batch experiments as described in Step 2 were performed. Before the addition of nitrate and methanol, the sludges were washed with effluent from the parent SBR to ensure that both sludge samples were nitrite-free. 5. The above tests were repeated at 48 hours. 6. Sludge samples were also removed at 48 hours from both reactors to quantify the live/dead cells using the Live/Dead BacLight Bacterial Viability assay. 7. At 48 hours, the experimental reactor was washed with the effluent from the parent SBR to remove the residual nitrite. Nitrate and methanol were then added to the reactor resulting in concentrations of […] and 150 mg/L, respectively. The methanol and nitrate consumptions rates at the end of Day 3, Day 4 and Day 7 were measured through measuring the nitrate and methanol concentrations over a period over one hour each time. […] Experiments with Full-Scale Sludge

Data set [3] relates to bacteria in a full-scale sludge. The conditions noted are these: FNA treated, 48 hours, 500 mgNO2-N/L, pH 6.0, 29 images. As for the experimental part:
Similar tests were performed on a full-scale sludge. However, no activity tests were carried out. […] The nitrite concentration applied to the experimental reactor was 500 mgNO2-N/L. pH was maintained at 6.0 in both the control and experimental reactors.

How the values of data set [4] were obtained: In this experiment, a lab-scale sequencing batch reactor (SBR) with a working volume of 8 L was used in this study. The SBR was operated with a cycle time of 6-h, consisting of 10 min anoxic feed, 70 min anoxic reaction, 225 min aerobic reaction, 5 min sludge wasting, 45 min settling and 5 min decanting periods. In each cycle, 2 L of synthetic wastewater containing 400 mg COD and 50 mgN/L TKN including 40 mgNH4+-N/L, made from milk powder and ammonium chloride, along with other trace elements, was pumped into the SBR in the 10 min feed period, resulting in a hydraulic retention time (HRT) of 24 h. Before settling, around 133 ml of mixed liquor was wasted, giving rise to a sludge retention time of 15 days. The SBR was operated at a temperature of 18±2° C., with DO being controlled between 1.5-2.0 mg/L by a programmable logic controller (PLC) in the aerobic period.
50% of the wasted mixed liquor was treated by 2.0 mg HNO2-N/L for approximately 24 h, 30 h, 36 h and 42 h, respectively.
The sludge wasted from the SBR was allowed to settle. […] The other 50% of the sludge was sent to disposal.
A control SBR operating under identical conditions was also fed with the same wastewater, but there was no recycle of any sludge to this reactor.

The subject of data set [5] is secondary sludge (denitrifying microorganisms). As for the experimental part: (§1) In general, primary sludge is readily hydrolysable (Mahmood and Elliott, 2006; Foladori et al., 2010). […] A series of batch tests were conducted through the use of an enriched methonal-utilising denitrifiers culture, which was employed as secondary sludge in this study.
Data set [6] has as its system secondary sludge (enriched methonal-utilising denitrifiers culture). As for the experimental part:
as §1

The mark [7] stands for this setting: Day 1 of exposure, 500 mg NO2-N/L, pH 6, FNA approx. 0.97 ppm.
Where [8] appears, read: Day 2 (48 h exposure; time when recovery started), FNA approx. 0.97 ppm, pH 6.
Where [9] appears, read: Day 3, after 48 h FNA exposure and nitrite wash-out.
The mark [10] stands for this setting: Day 4, after 48 h FNA exposure and nitrite wash-out.
Where [11] appears, read: Day 7, after 48 h FNA exposure and nitrite wash-out.

The values that follow come from patent publication US9242883B2, “Pre-treatment of sludge” (THE UNIVERSITY OF QUEENSLAND, priority 2011, dated 2016).

Values joined by “and” are separate entries in the source; they are usually repeats but may differ in a detail not shown here. Equal entries are not always repeated. Where two headings read alike, the source gives them in different places.

Procedure for AOB, NOB and OHOs: Sludge was taken out from the parent reactor (SBR) at the end of an aerobic period and then transferred into a batch reactor. Afterwards, ammonium and nitrite stock solutions were added to the batch reactor, resulting in the ammonium and nitrite concentrations of 25 mg NH4-N/L and 20 mg NO2-N/L, respectively. Air was supplied during the whole experiment period (DO was not limiting, i.e. >3 mg/L). pH was controlled in the range of 7.5-8 during the whole experimental period. The activities of AOB and NOB were determined as biomass-specific nitrite+nitrate and nitrate production rates, respectively.
Sludge was taken out from the parent reactor at the end of an aerobic period and then transferred into a batch reactor. Afterwards, sodium acetate and ammonium stock solutions were added to the batch reactor, resulting in the COD and ammonium concentrations of 150 mg COD/L and 20 NH4-N/L, respectively. Air was supplied during the whole experiment period (DO was not limiting, i.e. >3 mg/L). pH was controlled in the range of 7.5-8 during the whole experimental period. The aerobic activity of OHO was determined as biomass-specific COD consumption rates.
The experimental conditions applied in batch testing are set out in Table 6.

Take `O=NO` [FNA, free nitrous acid]: in the data set with secondary sludge, the “NH4+ release rate, dependency on FNA concentration” value is listed as “decrease”. Moreover, the “reduction of NOB and OHO compared to AOB” value in the data set on AOB, NOB and OHOs is on record as “significantly greater reduction in NOB”. In addition, the “Average (% dead cells)” value in the data set on denitrifying biomass [1] is 40.4%; in data set [3], 63.6%. Also, the “loss of biomass activity” value in the data set with denitrifying biomass [2] (FNA approximately 1 ppm for 48 hours) was 99%. Besides, the methanol consumption rate with denitrifying biomass [2] (setting [7]) is 0.051 mg Methanol/gVSS*min; in the data set on denitrifying biomass [2] (setting [8]) it was 0.0 mg Methanol/gVSS*min and 0 mg Methanol/gVSS*min. Besides, the figures for the nitrate consumption rate in the data set with denitrifying biomass [2] (setting [7]) and with denitrifying biomass [2] (setting [8]) were 0.014 mg N—NO3^−/gVSS*min and 0.004 mg N—NO3^−/gVSS*min, respectively. The “methanol consumption rate, activity recovery” value in the data set on denitrifying biomass [2] (setting [9]) was determined as 0.133 mg Methanol/gVSS*min; with denitrifying biomass [2] (setting [10]), 0.067 mg Methanol/gVSS*min; in the data set on denitrifying biomass [2] (setting [11]) it was 0.235 mg Methanol/gVSS*min. Moreover, the “nitrate consumption rate, activity recovery” value in the data set with denitrifying biomass [2] (setting [9]) came out at 0.004 mg N—NO3^−/gVSS*min; in the data set with denitrifying biomass [2] (setting [10]), 0.022 mg N—NO3^−/gVSS*min; in the data set with denitrifying biomass [2] (setting [11]) it was 0.089 mg N—NO3^−/gVSS*min. Further, the “MLSS Predicted if FNA did not improve sludge degradability” value in data set [4] (FNA reactor, steady state) is 2369 mg/L. Moreover, the “MLVSS Predicted if FNA did not improve sludge degradability” value in data set [4] (FNA reactor, steady state) is 2274 mg/L. Also, in data set [4] (mass balance analysis of MLSS and MLVSS), the “FNA treated sludge degraded in the reactor” value is on record as “approximately 75%”. In addition, the “biomass (denitrification) activity recovery” value in data set [5] (longest exposure time to FNA, even at lowest FNA concentration) was “almost negligible”; in data set [5] (lower exposure time, 8 h to FNA), “displays a recovery”. Further, the “live cell fraction, effect of exposure time” value in data set [6] (48 h of exposure vs shorter, biggest difference at highest FNA concentrations) was “Smaller live cell fraction”. In addition, the “fraction of viable cells, dependency on FNA concentration” value in data set [6] (exposure 8 h, 24 h, 48 h (FIG. 3)) was “decreased with increasing FNA concentration”.
